Assay results reported in patent publication US7737138B2 (priority 2004, dated 2010).
Counter-ions that a name gives are not always drawn. Like-named read-outs stand apart in the source and are kept apart here.

Columns and labels:
fibroblast cells (3T6) = test system: fibroblast cells (3T6); set-up: unit not given beside the values
[1] = molecular target: full-length tau (T40) / 12 kD PHF-core tau fragment in fibroblast cells (3T6) (Homo sapiens, UniProt P10636); assay: cell-based; format: cell-based
[2] = molecular target: tau-tau binding: truncated tau (residues 297-390; dGA) and full-length tau (T40) (Homo sapiens, UniProt P10636); settings: for IC50: read-out: B50
[3] = test system: viruses such as HIV and West Nile Virus; settings: MTC under the name Virostat, from Bioenvision Inc.; cited from earlier work

Chain of full-length tau (T40) / 12 kD PHF-core tau fragment in fibroblast cells (3T6) (P10636 612-707): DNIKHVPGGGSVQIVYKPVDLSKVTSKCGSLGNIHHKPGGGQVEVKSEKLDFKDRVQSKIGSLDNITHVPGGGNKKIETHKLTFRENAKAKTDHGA
Chain of tau-tau binding: truncated tau (residues 297-390; dGA) and full-length tau (T40) (P10636 614-707): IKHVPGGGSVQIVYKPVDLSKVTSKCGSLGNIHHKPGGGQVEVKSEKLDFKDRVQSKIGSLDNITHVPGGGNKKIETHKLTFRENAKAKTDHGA

Q: With Ethylthioninium Chloride [ETC] as the compound, how does the LD50 (fibroblast cells (3T6)) read?
A: The LD50 was 32.0 ± 4.0 (26).

Q: What about the EC50 [1] of the same compound?
A: The EC50 was 70 nM.

Q: What about the IC50 [2] of the same compound?
A: Its IC50 is 49000 nM.

Q: For CCN(CC)c1ccc2nc3ccc(N(CC)CC)cc3[s+]c2c1 [ETZ, Ethylthioninium Chloride (ETC) Zinc Chloride (Double Salt)], which EC50 [1] is on record?
A: The EC50 was 60 nM.

Q: And the B50 [2]?
A: The B50 was 145.4 ± 5.7 (5).

Q: With CN(C)c1ccc2nc3ccc(N(C)C)cc3[s+]c2c1 [MTC, Methythioninium Chloride] as the compound, how does the “viricidal activity in vitro” value [3] read?
A: Its value is “potent viricidal activity”.

Q: Which LD50 (fibroblast cells (3T6)) does the source give for “1,9-Diethyl Ethylthioninium chloride [DEETC]” here?
A: Its LD50 is 1.6 ± 0.4 (13).

Q: And the EC50 [1]?
A: Its EC50 is 0.6 nM.

Q: What about the IC50 [2] of the same compound?
A: Its IC50 is 3700 nM.

Q: What does the source list for Ethyl-thioninium iodide [ETI]?
A: EC50 [1]: 60 nM; IC50 ([2]; concentration of compound required to inhibit the tau-tau binding by 50%, […]): > 500000 nM
